Earlier results as cited in patent US20130004575A1, “CONTROLLED RELEASE FORMULATIONS USING INTELLIGENT POLYMERS” (VALEANT INTERNATIONAL (BARBADOS) SRL, priority 1997, published 2013).

Conditions: room temperature

CC1(C)O[C@@H]2[C@@H](CO[C@@]3(COS(N)(=O)=O)OC(C)(C)O[C@@H]23)O1 [topiramate, 2,3:4,5-bis-O-(1-methylethylidene)-β-D-fructopyranose sulfamate]
solubility of topiramate in water: about 9.8 mg/mL
